≈ marks a conversion by molar mass, not a printed value. Where two headings read alike, the source gives them in different places.
Tests used:
[1] = test system: S. paratyphi 11737; experiment: In vitro antibacterial activity (MIC), S. paratyphi 11737; assay type: cell-based; settings: Salmonella enterica, 18 h
[2] = test system: bacterial infections; experiment: Synergism with sulfamethoxazole against bacterial infections in mice, oral; assay type: in vivo
Experimental: The invention also provides compounds which will potentiate the antibacterial effects of sulfa drugs.
(§1) The test agents are weighed, suspended in 0.5% aqueous carboxymethyl cellulose, homogenized (glass tissue grinder) and diluted according to the design of the experiment. Mice (male, 18±1 g., CD-1 strain) are pre-weighed, pooled, infected at random intraperitoneally with a 0.5 ml. standardized suspension (LD95 ±5%) of the bacterial organism in 5% gastric mucin and treated at random with single doses of the test agents either at the time of infection or six hours after infecting. The treated groups consist of ten mice per dosage level. Deaths are recorded daily for 14 days and the PD50 (mice are treated at time of infection) and CD50 (mice are treated six hours after infecting) values are calculated by the method of Reed and Muench [Amer. J. Hyg., 27, 493 (1938)].

[3] = test system: Proteus mirabilis 190; experiment: In vivo antibacterial synergism (mouse), Proteus mirabilis 190; design: species or system Proteus mirabilis (infected mice, CD-1); settings: mice, p.o.; for ED50: Proteus mirabilis, 190, po, 336 h; for PD50 SM/Cpd. (compound part): 0 hours; for PD50 SM/Cpd. (compound part) / CD50 SM/Cpd. (compound part): 20160 min; for CD50 SM/Cpd. (compound part): 6 hours
Experimental: as §1

[4] = test system: Proteus mirabilis 3; experiment: In vivo antibacterial synergism (mouse), Proteus mirabilis 3; design: species or system Proteus mirabilis (infected mice, CD-1); settings: mice, p.o.; for PD50 SM/Cpd. (compound part): 0 hours, 20160 min
Experimental: as §1

[5] = test system: Proteus vulgaris 347; experiment: In vivo antibacterial synergism (mouse), Proteus vulgaris 347; design: species or system Proteus vulgaris (infected mice, CD-1); settings: mice, p.o.; for ED50: Proteus vulgaris, 347, po, 336 h; for PD50 SM/Cpd. (compound part): 0 hours; for PD50 SM/Cpd. (compound part) / CD50 SM/Cpd. (compound part): 20160 min; for CD50 SM/Cpd. (compound part): 6 hours
Experimental: as §1

[6] = test system: Escherichia coli W-102; experiment: In vivo antibacterial synergism (mouse), Escherichia coli W-102; design: species or system Escherichia coli (infected mice, CD-1); settings: mice, p.o.; for PD50 SM/Cpd. (compound part): 0 hours; for PD50 SM/Cpd. (compound part) / CD50 SM/Cpd. (compound part): 20160 min; for CD50 SM/Cpd. (compound part): 6 hours
Experimental: as §1

[7] = test system: Plasmodium berghei KBG 173; experiment: Antimalarial blood schizonticidal test in mice; assay type: in vivo, Plasmodium berghei (infected ICR/HA Swiss mice); design: ΔMST (increase in mean survival time): unit: days; settings: s.c.
Outline: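 ICR/HA Swiss mice (18–22 g) infected i.p. with 4 × 10^7 P. berghei KBG 173-parasitized cells; single subcutaneous dose in peanut oil at 72 h post-infection, graded dosages. Survival followed 60 days; 60-day survivors counted cured, deaths before day 6 counted toxic; mean survival time compared with untreated controls.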

[8] = test system: lymphocytic leukemia P-388; experiment: Activity in mice against lymphocytic leukemia P-388; assay type: in vivo; settings: Mus musculus, P388, ip; mice, I.P., 20 mg/kg; read-out: T/C
[9] = test system: E. coli 9637; experiment: In vitro antibacterial activity (MIC), E. coli 9637; settings: Escherichia coli, 9637, 18 h
[10] = test system: S. aureus Smith; experiment: In vitro antibacterial activity (MIC), S. aureus Smith; settings: Staphylococcus aureus, 18 h
[11] = test system: S. aureus 53-180; experiment: In vitro antibacterial activity (MIC), S. aureus 53-180; settings: Staphylococcus aureus, 53180, 18 h
[12] = test system: P. vulgaris 6896; experiment: In vitro antibacterial activity (MIC), P. vulgaris 6896; settings: Proteus vulgaris, 6896, 18 h
[13] = test system: N. catarrhalis 8193; experiment: In vitro antibacterial activity (MIC), N. catarrhalis 8193; settings: 18 h
[14] = treated 0 hours after infecting, read-out: PD50 (agent alone)
[15] = treated 6 hours after infecting, read-out: CD50 (agent alone)

Compound: N#Cc1ccc(Cn2ccc3c4c(N)nc(N)nc4ccc32)cc1 [Example 16, 7-[(4-cyanophenyl)methyl]-7H-pyrrolo[3,2-f]-quinazoline-1,3-diamine]
- MIC [1]: 0.488 µg/mL (≈ 1.55 µM)
- synergistic effect with sulfamethoxazole [2]: synergistic effect
- ED50 [3, 14]: 18.6 mg/kg
- ED50 [3, 15]: 159 mg/kg
- PD50 SM/Cpd. (compound part) ([3]; with SM 0.39 mg. per kg.): > 12.50 mg. per kg.
- PD50 SM/Cpd. (compound part) ([3]; with SM 0.78 mg. per kg.): 8.78 mg. per kg.
- PD50 SM/Cpd. (compound part) ([3]; with SM 1.56 mg. per kg.): 3.39 mg. per kg.
- PD50 SM/Cpd. (compound part) ([3]; with SM 3.11 mg. per kg.): 2.44 mg. per kg.
- CD50 SM/Cpd. (compound part) ([3]; with SM 0.39 mg. per kg.): > 6.25 mg. per kg.
- CD50 SM/Cpd. (compound part) ([3]; with SM 0.78 mg. per kg.): > 6.25 mg. per kg.
- CD50 SM/Cpd. (compound part) ([3]; with SM 1.56 mg. per kg.): 4.0 mg. per kg.
- CD50 SM/Cpd. (compound part) ([3]; with SM 3.11 mg. per kg.): 2.33 mg. per kg.
- ED50 ([4]; Proteus mirabilis, 3, po, 336 h, treated 0 hours after infecting, read-out: PD50 (agent alone)): 22.7 mg/kg
- PD50 SM/Cpd. (compound part) ([4]; with SM 0.78 mg. per kg.): 7.11 mg. per kg.
- PD50 SM/Cpd. (compound part) ([4]; with SM 1.56 mg. per kg.): 6.56 mg. per kg.
- PD50 SM/Cpd. (compound part) ([4]; with SM 3.13 mg. per kg.): 2.28 mg. per kg.
- PD50 SM/Cpd. (compound part) ([4]; with SM 6.25 mg. per kg.): 2.11 mg. per kg.
- ED50 [5, 14]: > 200 mg/kg
- ED50 [5, 15]: > 400 mg/kg
- PD50 SM/Cpd. (compound part) ([5]; with SM 0.78 mg. per kg.): > 12.5 mg. per kg.
- PD50 SM/Cpd. (compound part) ([5]; with SM 1.56 mg. per kg.): > 12.5 mg. per kg.
- PD50 SM/Cpd. (compound part) ([5]; with SM 3.13 mg. per kg.): 9.67 mg. per kg.
- PD50 SM/Cpd. (compound part) ([5]; with SM 6.25 mg. per kg.): 6.25 mg. per kg.
- CD50 SM/Cpd. (compound part) ([5]; with SM 3.11 mg. per kg.): 7.28 mg. per kg.
- CD50 SM/Cpd. (compound part) ([5]; with SM 6.25 mg. per kg.): 8.83 mg. per kg.
- CD50 SM/Cpd. (compound part) ([5]; with SM 12.5 mg. per kg.): 4.66 mg. per kg.
- CD50 SM/Cpd. (compound part) ([5]; with SM 25 mg. per kg.): 5.07 mg. per kg.
- ED50 ([6]; Escherichia coli, W102, po, 336 h, treated 0 hours after infecting, read-out: PD50 (agent alone)): > 800 mg/kg
- PD50 SM/Cpd. (compound part) ([6]; with SM 3.13 mg. per kg.): 67.8 mg. per kg.
- PD50 SM/Cpd. (compound part) ([6]; with SM 6.25 mg. per kg.): 53.1 mg. per kg.
- PD50 SM/Cpd. (compound part) ([6]; with SM 12.5 mg. per kg.): 15.6 mg. per kg.
- PD50 SM/Cpd. (compound part) ([6]; with SM 25.0 mg. per kg.): 15.9 mg. per kg.
- CD50 SM/Cpd. (compound part) ([6]; with SM 12.5 mg. per kg.): 50 mg. per kg.
- CD50 SM/Cpd. (compound part) ([6]; with SM 25 mg. per kg.): 89 mg. per kg.
- CD50 SM/Cpd. (compound part) ([6]; with SM 50 mg. per kg.): 37 mg. per kg.
- minimal effective dose ([7]; Plasmodium berghei, sc, 1440 h, single dose, 60-day survivors, read-out: Min. Curing Dose): 5 mg/kg
- Cure/Treat at Min. Curing Dose ([7]; at the Min. Curing Dose, 60-day survivors): 1/5
- ΔMST (increase in mean survival time) ([7]; dose 10 mg. per kg.): 8.4
- response vs control in vivo at 20 mg/kg [8]: 138%
- MIC [9]: 0.244 µg/mL (≈ 0.776 µM)
- MIC [10]: 0.244 µg/mL (≈ 0.776 µM)
- MIC [11]: 0.122 µg/mL (≈ 0.388 µM)
- MIC [12]: 1.95 µg/mL (≈ 6.2 µM)
- MIC [13]: 0.0076 µg/mL (≈ 0.0242 µM)

Source: patent US4118561A, “7-(Substituted)-7H-pyrrolo[3,2-f]quinazoline-1,3-diamines” (priority 1977, dated 1978)
